Measured values reported in the NIST ThermoML archive (doi:10.1016/j.jct.2010.06.011).
± gives the expanded uncertainty stated by the source.

Columns and labels:
[1] = xn = mol fraction of the nth substance listed; conditions: Liquid, Vibrating tube method, x2 = 0
[2] = Liquid, Vibrating tube method

## CCCCCC [hexane] + COC(=O)OC
[1]; 293.15 K, 100 kPa
  mass density: 659.4 ± 0.3 kg/m3
[1]; 293.15 K, 5000 kPa
  mass density: 664.8 ± 0.3 kg/m3
[1]; 293.15 K, 10000 kPa
  mass density: 669.7 ± 0.4 kg/m3
[1]; 293.15 K, 20000 kPa
  mass density: 678.7 ± 0.5 kg/m3
[1]; 293.15 K, 30000 kPa
  mass density: 686.9 ± 0.6 kg/m3
[1]; 293.15 K, 40000 kPa
  mass density: 694.3 ± 0.7 kg/m3
[1]; 298.15 K, 100 kPa
  mass density: 654.9 ± 0.3 kg/m3
[1]; 298.15 K, 5000 kPa
  mass density: 660.4 ± 0.3 kg/m3
[1]; 298.15 K, 10000 kPa
  mass density: 665.5 ± 0.4 kg/m3
[1]; 298.15 K, 20000 kPa
  mass density: 674.8 ± 0.5 kg/m3
[1]; 298.15 K, 30000 kPa
  mass density: 683.2 ± 0.6 kg/m3
[1]; 298.15 K, 40000 kPa
  mass density: 690.7 ± 0.7 kg/m3
[1]; 303.15 K, 100 kPa
  mass density: 650.2 ± 0.3 kg/m3
[1]; 303.15 K, 5000 kPa
  mass density: 655.8 ± 0.3 kg/m3
[1]; 303.15 K, 10000 kPa
  mass density: 661.2 ± 0.4 kg/m3
[1]; 303.15 K, 20000 kPa
  mass density: 670.8 ± 0.5 kg/m3
[1]; 303.15 K, 30000 kPa
  mass density: 679.3 ± 0.6 kg/m3
[1]; 303.15 K, 40000 kPa
  mass density: 687 ± 0.7 kg/m3
[1]; 308.15 K, 100 kPa
  mass density: 645.7 ± 0.3 kg/m3
[1]; 308.15 K, 5000 kPa
  mass density: 651.5 ± 0.3 kg/m3
[1]; 308.15 K, 10000 kPa
  mass density: 657 ± 0.4 kg/m3
[1]; 308.15 K, 20000 kPa
  mass density: 666.9 ± 0.5 kg/m3
[1]; 308.15 K, 30000 kPa
  mass density: 675.8 ± 0.6 kg/m3
[1]; 308.15 K, 40000 kPa
  mass density: 683.6 ± 0.7 kg/m3
[1]; 313.15 K, 100 kPa
  mass density: 640.9 ± 0.3 kg/m3
[1]; 313.15 K, 5000 kPa
  mass density: 647 ± 0.3 kg/m3
[1]; 313.15 K, 10000 kPa
  mass density: 652.8 ± 0.4 kg/m3
[1]; 313.15 K, 20000 kPa
  mass density: 663.1 ± 0.5 kg/m3
[1]; 313.15 K, 30000 kPa
  mass density: 672.1 ± 0.6 kg/m3
[1]; 313.15 K, 40000 kPa
  mass density: 680.2 ± 0.7 kg/m3

## COC(=O)OC [dimethyl carbonate]
[2]; 293.15 K, 100 kPa
  mass density: 1069.8 ± 0.3 kg/m3
[2]; 293.15 K, 5000 kPa
  mass density: 1074.4 ± 0.3 kg/m3
[2]; 293.15 K, 10000 kPa
  mass density: 1078.6 ± 0.3 kg/m3
[2]; 293.15 K, 20000 kPa
  mass density: 1086.9 ± 0.3 kg/m3
[2]; 293.15 K, 30000 kPa
  mass density: 1094.5 ± 0.3 kg/m3
[2]; 293.15 K, 40000 kPa
  mass density: 1101.9 ± 0.4 kg/m3
[2]; 298.15 K, 100 kPa
  mass density: 1063.2 ± 0.3 kg/m3
[2]; 298.15 K, 5000 kPa
  mass density: 1068 ± 0.3 kg/m3
[2]; 298.15 K, 10000 kPa
  mass density: 1072.4 ± 0.3 kg/m3
[2]; 298.15 K, 20000 kPa
  mass density: 1080.8 ± 0.3 kg/m3
[2]; 298.15 K, 30000 kPa
  mass density: 1088.7 ± 0.3 kg/m3
[2]; 298.15 K, 40000 kPa
  mass density: 1096.2 ± 0.4 kg/m3
[2]; 303.15 K, 100 kPa
  mass density: 1056.5 ± 0.3 kg/m3
[2]; 303.15 K, 5000 kPa
  mass density: 1061.3 ± 0.3 kg/m3
[2]; 303.15 K, 10000 kPa
  mass density: 1066 ± 0.3 kg/m3
[2]; 303.15 K, 20000 kPa
  mass density: 1074.7 ± 0.3 kg/m3
[2]; 303.15 K, 30000 kPa
  mass density: 1082.9 ± 0.3 kg/m3
[2]; 303.15 K, 40000 kPa
  mass density: 1090.4 ± 0.4 kg/m3
[2]; 308.15 K, 100 kPa
  mass density: 1049.8 ± 0.3 kg/m3
[2]; 308.15 K, 5000 kPa
  mass density: 1054.6 ± 0.3 kg/m3
[2]; 308.15 K, 10000 kPa
  mass density: 1059.4 ± 0.3 kg/m3
[2]; 308.15 K, 20000 kPa
  mass density: 1068.5 ± 0.3 kg/m3
[2]; 308.15 K, 30000 kPa
  mass density: 1077 ± 0.3 kg/m3
[2]; 308.15 K, 40000 kPa
  mass density: 1084.8 ± 0.3 kg/m3
[2]; 313.15 K, 100 kPa
  mass density: 1043 ± 0.3 kg/m3
[2]; 313.15 K, 5000 kPa
  mass density: 1048.1 ± 0.3 kg/m3
[2]; 313.15 K, 10000 kPa
  mass density: 1053 ± 0.3 kg/m3
[2]; 313.15 K, 20000 kPa
  mass density: 1062.3 ± 0.3 kg/m3
[2]; 313.15 K, 30000 kPa
  mass density: 1071 ± 0.3 kg/m3
[2]; 313.15 K, 40000 kPa
  mass density: 1079 ± 0.3 kg/m3

## CCCCCC [hexane]
[2]; 293.15 K, 100 kPa
  mass density: 659.4 ± 0.3 kg/m3
[2]; 293.15 K, 5000 kPa
  mass density: 664.8 ± 0.3 kg/m3
[2]; 293.15 K, 10000 kPa
  mass density: 669.7 ± 0.4 kg/m3
[2]; 293.15 K, 20000 kPa
  mass density: 678.7 ± 0.5 kg/m3
[2]; 293.15 K, 30000 kPa
  mass density: 686.9 ± 0.6 kg/m3
[2]; 293.15 K, 40000 kPa
  mass density: 694.3 ± 0.7 kg/m3
[2]; 298.15 K, 100 kPa
  mass density: 654.9 ± 0.3 kg/m3
[2]; 298.15 K, 5000 kPa
  mass density: 660.4 ± 0.3 kg/m3
[2]; 298.15 K, 10000 kPa
  mass density: 665.5 ± 0.4 kg/m3
[2]; 298.15 K, 20000 kPa
  mass density: 674.8 ± 0.5 kg/m3
[2]; 298.15 K, 30000 kPa
  mass density: 683.2 ± 0.6 kg/m3
[2]; 298.15 K, 40000 kPa
  mass density: 690.7 ± 0.7 kg/m3
[2]; 303.15 K, 100 kPa
  mass density: 650.2 ± 0.3 kg/m3
[2]; 303.15 K, 5000 kPa
  mass density: 655.8 ± 0.3 kg/m3
[2]; 303.15 K, 10000 kPa
  mass density: 661.2 ± 0.4 kg/m3
[2]; 303.15 K, 20000 kPa
  mass density: 670.8 ± 0.5 kg/m3
[2]; 303.15 K, 30000 kPa
  mass density: 679.3 ± 0.6 kg/m3
[2]; 303.15 K, 40000 kPa
  mass density: 687 ± 0.7 kg/m3
[2]; 308.15 K, 100 kPa
  mass density: 645.7 ± 0.3 kg/m3
[2]; 308.15 K, 5000 kPa
  mass density: 651.5 ± 0.3 kg/m3
[2]; 308.15 K, 10000 kPa
  mass density: 657 ± 0.4 kg/m3
[2]; 308.15 K, 20000 kPa
  mass density: 666.9 ± 0.5 kg/m3
[2]; 308.15 K, 30000 kPa
  mass density: 675.8 ± 0.6 kg/m3
[2]; 308.15 K, 40000 kPa
  mass density: 683.6 ± 0.7 kg/m3
[2]; 313.15 K, 100 kPa
  mass density: 640.9 ± 0.3 kg/m3
[2]; 313.15 K, 5000 kPa
  mass density: 647 ± 0.3 kg/m3
[2]; 313.15 K, 10000 kPa
  mass density: 652.8 ± 0.4 kg/m3
[2]; 313.15 K, 20000 kPa
  mass density: 663.1 ± 0.5 kg/m3
[2]; 313.15 K, 30000 kPa
  mass density: 672.1 ± 0.6 kg/m3
[2]; 313.15 K, 40000 kPa
  mass density: 680.2 ± 0.7 kg/m3
